Consider 14 molecules from article PMC7024253, “New Napyradiomycin Analogues from Streptomyces sp. Strain CA-271078” (Marine Drugs, 2019).

For one test, the system named is E. coli ATCC 25922. Put plainly: Antibacterial assay against E. coli. It is filed as cell-based, Escherichia coli. Conditions: top concentration 96 μg/mL (64 μg/mL for 3 and 8); for MIC: Escherichia coli, ATCC25922, MIC = lowest concentration inhibiting ≥ 95% of growth; for MIC Ec: MIC = lowest concentration inhibiting ≥ 95% of growth.
The next test has as its system A. fumigatus ATCC46645. As to the kind of experiment: Antifungal assay against A. fumigatus. It is filed as cell-based, Aspergillus fumigatus. The settings on record: A. fumigatus ATCC 46645, MIC = lowest concentration inhibiting ≥ 95% of growth, top concentration 96 μg/mL (64 μg/mL for 3 and 8); for MIC: Aspergillus fumigatus, ATCC46645.
In test [1] the test system is methicillin-resistant S. aureus (MRSA) MB5393. As to the kind of experiment: Antibacterial assay against MRSA. It is filed as cell-based, Staphylococcus aureus. Conditions: for MIC: Staphylococcus aureus; for MIC / MIC MRSA: MIC = lowest concentration inhibiting ≥ 95% of growth after overnight incubation, top concentration 96 μg/mL (64 μg/mL for 3 and 8).
The test system of the next test is M. tuberculosis H37Ra. As to the kind of experiment: Antibacterial assay against M. tuberculosis. The format is cell-based, Mycobacterium tuberculosis. The settings on record: for MIC: Mycobacterium tuberculosis; for MIC / MIC Mt: M. tuberculosis H37Ra, MIC = lowest concentration inhibiting ≥ 95% of growth, top concentration 96 μg/mL (64 μg/mL for 3 and 8).
A further test has as its system A. baumannii MB5973. Put plainly: Antibacterial assay against A. baumannii. The format is cell-based, Acinetobacter baumannii. Conditions: MIC = lowest concentration inhibiting ≥ 95% of growth, top concentration 96 μg/mL (64 μg/mL for 3 and 8); for MIC: Acinetobacter baumannii.
Test [2] relates to human liver adenocarcinoma cell line (HepG2). As to the kind of experiment: Cytotoxicity assay against HepG2. It is filed as cell-based. The settings on record: for IC50: 10 two-fold dilutions starting at 150, 100 (3, 8) or 30.0 μg/mL (1, 5).
Where [3] appears, read: MRSA MB5393, read-out: MIC MRSA.
Setting [4] is: Homo sapiens, HepG2, HepG-2 cytotoxicity.
Setting [5] is: MRSA, read-out: MIC MRSA, MRSA MB5393.

Values after ≈ are worked out from the molar mass of the structure shown. Where two headings read alike, the source gives them in different places. A value given as a limit tells only on which side of the number the result lay.

As usually defined, the MIC is the lowest concentration found to suppress growth. One may read the IC50 as the concentration that gives 50% inhibition. Consider `CC1(C)O[C@@]2(C[C@H]3C(C)(C)[C@@H](Cl)CC[C@]3(C)O)C(=O)c3cc(O)cc(O)c3C(=O)C2=C[C@@H]1Cl` [Compound 3, Napyradiomycin B7b], for which the minimal inhibitory concentration (MIC) (against E. coli ATCC 25922; against A. fumigatus ATCC46645; in test [1] (setting [3]); in the test with M. tuberculosis H37Ra; in the test with A. baumannii MB5973) was greater than 64 µg/mL each time. In test [2] (setting [4]), this molecule gave an IC50 of 110 µM.

As to `CC(=CCCC(C)=CCC12OC(C)(C)C(Cl)CC1(Cl)C(=O)c1c(O)cc(O)cc1C2=O)CO` (stereo not shown) [Compound 10, 18-hydroxynapyradiomycin A1], in the test on E. coli ATCC 25922, the “MIC Ec” value was greater than 96 µg/mL. Further, the “MIC Af” value against A. fumigatus ATCC46645 is greater than 96 µg/mL. Also, in test [1] (MRSA MB5393), the “MIC MRSA” value lay within 48 to 96 µg/mL. For the same molecule, the “MIC Mt” value in the test with M. tuberculosis H37Ra was greater than 96 µg/mL. Also, in the test with A. baumannii MB5973, the “MIC Ab” value is greater than 96 µg/mL. In test [2] (HepG-2 cytotoxicity), this molecule returned an IC50 of 64.4 µM.

On to `CC1(C)O[C@@]2(C[C@H]3C(C)(C)[C@@H](Cl)CC[C@]3(C)O)C(=O)c3cc(O)cc(O)c3C(=O)[C@@]2(Cl)C[C@H]1Cl` [Compound 13, napyradiomycin B4], for which the “MIC Ec” value with E. coli ATCC 25922 was greater than 96 µg/mL. Besides, the “MIC Af” value against A. fumigatus ATCC46645 is greater than 96 µg/mL. The “MIC MRSA” value in test [1] (MRSA MB5393) lay within 12 to 24 µg/mL. Also, the “MIC Mt” value with M. tuberculosis H37Ra is 12 to 24 µg/mL. Besides, the “MIC Ab” value with A. baumannii MB5973 was greater than 96 µg/mL.

On to `CC1(C)O[C@@]2(C[C@H]3C(C)(C)[C@@H](Cl)CC[C@]3(C)O)C(=O)c3cc(O)cc(O)c3C(=O)C2=C[C@H]1Cl` [Compound 2, Napyradiomycin B7a], for which the MIC is greater than 96 µg/mL in the test with E. coli ATCC 25922; greater than 96 µg/mL in the test on A. fumigatus ATCC46645; 3 to 48 µg/mL (≈ 6.03 to 96.5 µM) in test [1] (setting [5]); 48 µg/mL (≈ 96.5 µM) in test [1] (setting [3]); 12 to 24 µg/mL (≈ 24.1 to 48.2 µM) in the test with M. tuberculosis H37Ra; greater than 96 µg/mL with A. baumannii MB5973. The IC50 in test [2] (HepG-2 cytotoxicity) is 41.7 µM; in test [2] (setting [4]), less than 50 µM.

On to napyradiomycin B5 [Compound 15], for which the “MIC Ec” value in the test on E. coli ATCC 25922 was greater than 96 µg/mL. In addition, the “MIC Af” value against A. fumigatus ATCC46645 is greater than 96 µg/mL. The “MIC MRSA” value in test [1] (MRSA MB5393) lay within 12 to 24 µg/mL. The “MIC Mt” value in the test with M. tuberculosis H37Ra was 24 to 48 µg/mL. Also, in the test with A. baumannii MB5973, the “MIC Ab” value was greater than 96 µg/mL. The molecule further gave an IC50 in test [2] (HepG-2 cytotoxicity) of 40.1 µM.

Regarding napyradiomycin B2 [Compound 14], the “MIC Ec” value in the test on E. coli ATCC 25922 was greater than 96 µg/mL. For the same molecule, the “MIC Af” value against A. fumigatus ATCC46645 was greater than 96 µg/mL. For the same molecule, the “MIC MRSA” value in test [1] (MRSA MB5393) lay in the range of 3 to 6 µg/mL. Besides, in the test on M. tuberculosis H37Ra, the “MIC Mt” value was 24 to 48 µg/mL. For the same molecule, in the test on A. baumannii MB5973, the “MIC Ab” value is greater than 96 µg/mL. Besides, the IC50 in test [2] (HepG-2 cytotoxicity) worked out at 27.1 µM.

For napyradiomycin A2a [Compound 11], in the test on E. coli ATCC 25922, the “MIC Ec” value is greater than 96 µg/mL. Besides, the “MIC Af” value in the test on A. fumigatus ATCC46645 was greater than 96 µg/mL. Moreover, in test [1] (MRSA MB5393), the “MIC MRSA” value is 12 to 24 µg/mL. The “MIC Mt” value against M. tuberculosis H37Ra was 48 to 96 µg/mL. Also, the “MIC Ab” value with A. baumannii MB5973 is greater than 96 µg/mL. The molecule further displayed an IC50 in test [2] (HepG-2 cytotoxicity) of 30.4 µM.

Consider `CC1(C)OC2=C(CC1Cl)C(=O)c1c(O)cc(O)cc1C2=O` (stereo not drawn) [Compound 7, 3-chloro-6,8-dihydroxy-8-α-lapachone], for which, in the test on E. coli ATCC 25922, the “MIC Ec” value is greater than 96 µg/mL. Further, the “MIC Af” value in the test on A. fumigatus ATCC46645 is greater than 96 µg/mL. Further, the “MIC MRSA” value in test [1] (MRSA MB5393) fell in the range of 48 to 96 µg/mL. In the test with M. tuberculosis H37Ra, the “MIC Mt” value lay in the range of 12 to 24 µg/mL. In the test on A. baumannii MB5973, the “MIC Ab” value is greater than 96 µg/mL. The molecule further showed an IC50 in test [2] (HepG-2 cytotoxicity) of 187 µM.

As to `CC1=CCC23OC(C)(C)C(Cl)CC2(Cl)C(=O)c2c(cc(O)cc2C3=O)OCC(C)=CCC1` (stereo not shown) [Compound 5, Napyradiomycin D1], the MIC with E. coli ATCC 25922 is greater than 96 µg/mL; in test [1] (setting [5]), 3 to 48 µg/mL (≈ 6.26 to 100 µM); in test [1] (setting [3]), 12 to 24 µg/mL (≈ 25 to 50.1 µM); in the test on M. tuberculosis H37Ra, 24 to 48 µg/mL (≈ 50.1 to 100 µM); against A. baumannii MB5973 it was greater than 96 µg/mL. The “growth-inhibitory activity against methicillin-resistant Staphylococcus aureus (in words)” value in test [1] (abstract statement) was “significant growth-inhibitory activity”. Moreover, the “growth-inhibitory activity against Mycobacterium tuberculosis (in words)” value with M. tuberculosis H37Ra (abstract statement) is recorded as “significant growth-inhibitory activity”. Further, the “growth-inhibitory activity against HepG2 (in words)” value in test [2] (abstract statement) is reported as “significant growth-inhibitory activity”.

With `C=C(C)C(O)CCC(C)=CCC12OC(C)(C)C(O)C=C1C(=O)c1c(O)cc(O)cc1C2=O` (stereo not shown) [Compound 1, Napyradiomycin A3], the MIC (against E. coli ATCC 25922; in test [1] (setting [3]); in the test on A. baumannii MB5973) was greater than 96 µg/mL throughout. The same molecule had an IC50 in test [2] (setting [4]) greater than 67.8 µM.

For `CC1(C)O[C@@]2(C[C@H]3C(C)(C)[C@@H](Cl)CC[C@]3(C)O)C(=O)c3cc(O)cc(O)c3C(=O)[C@@]2(O)C[C@H]1Cl` [Compound 4, Napyradiomycin SC], the MIC was greater than 96 µg/mL with E. coli ATCC 25922; greater than 96 µg/mL with A. fumigatus ATCC46645; greater than 96 µg/mL in test [1] (setting [3]); 24 to 48 µg/mL (≈ 46.6 to 93.1 µM) against M. tuberculosis H37Ra; greater than 96 µg/mL against A. baumannii MB5973. In test [2] (setting [4]), 264 µM corresponded to half-maximal inhibition (IC50).

napyradiomycin B6 [Compound 9]: the “MIC Ec” value in the test on E. coli ATCC 25922 was greater than 96 µg/mL. The “MIC Af” value in the test with A. fumigatus ATCC46645 was greater than 96 µg/mL. Moreover, the “MIC MRSA” value in test [1] (MRSA MB5393) lay in the range of 48 to 96 µg/mL. In the test with M. tuberculosis H37Ra, the “MIC Mt” value was in the range of 12 to 24 µg/mL. Moreover, in the test on A. baumannii MB5973, the “MIC Ab” value was greater than 96 µg/mL. Half-maximal inhibition in test [2] (HepG-2 cytotoxicity) (IC50) required 71.2 µM.

Regarding `COc1cc(O)c2c(c1)C(=O)C1=C(CC(Cl)C(C)(C)O1)C2=O` (stereo not drawn) [Compound 8, 3-chloro-6-hydroxy-8-methoxy-α-lapachone], in the test on E. coli ATCC 25922, the “MIC Ec” value is greater than 64 µg/mL. Further, the “MIC Af” value in the test with A. fumigatus ATCC46645 is greater than 64 µg/mL. Moreover, the “MIC MRSA” value in test [1] (MRSA MB5393) was greater than 64 µg/mL. Moreover, in the test on M. tuberculosis H37Ra, the “MIC Mt” value is greater than 64 µg/mL. In addition, in the test on A. baumannii MB5973, the “MIC Ab” value was greater than 64 µg/mL. The molecule further gave an IC50 in test [2] (HepG-2 cytotoxicity) of 30.2 µM.

For the molecule napyradiomycin A2b [Compound 12], the “MIC Ec” value against E. coli ATCC 25922 was greater than 96 µg/mL. In addition, the “MIC Af” value with A. fumigatus ATCC46645 is greater than 96 µg/mL. The “MIC MRSA” value in test [1] (MRSA MB5393) fell in the range of 12 to 24 µg/mL. Moreover, the “MIC Mt” value against M. tuberculosis H37Ra lay within 48 to 96 µg/mL. Also, the “MIC Ab” value against A. baumannii MB5973 is greater than 96 µg/mL. This molecule returned an IC50 in test [2] (HepG-2 cytotoxicity) of 28.6 µM.
